Reference: publication doi:10.1101/2023.11.15.567208 (bioRxiv, 2024)
Entries after “also recorded” stand apart in the source; their conditions may differ.

Experiments:
[1] = Hindpaw swelling / oedema, paw volume; assay type: in vivo, mouse; details: for Swelling of the hindpaw: hindpaw of DKO mice compared with WT, observation on injection; for Paw oedema (paw volume): intraplantar injection, volume normalized to uninjected paw, capsaicin WT n=9, DKO n=7, AITC n=8 each
Method: (§1) Mice were anesthetized using isoflurane. 200 μl of Evans Blue dye was injected into the mouse’s tail vein. 15 mins later, one hindpaw was injected with an algogen. After a further 30 mins, the volume of each paw was measured by displacement using a plethysmometer (Ugo Basile). Both paws were then cut at the ankle and placed in tubes in the oven at 55 °C for 24 hours to dry. 1 ml of formamide was then added to each paw and incubated for 4–6 days at 55 °C to extract the dye from the paw tissue. 50 μl samples of dye-infused formamide from each paw were then dispensed to a 96 well plate in duplicate, along with a range of Evans blue dilutions in formamide to generate a standard curve. The optical density of each sample was then measured using a plate-reader, and the concentration of Evans Blue per paw sample interpolated from the standard curve to generate an index of extravasation in that paw.

[2] = Plasma extravasation, Evans blue dye; assay type: in vivo, mouse; details: Evans blue optical density, normalized to uninjected paw; capsaicin WT n=9, DKO n=7; AITC n=8 each
Method: as §1

[3] = Chemical algogens, licking behavior after intraplantar injection; assay type: in vivo, mouse; details: 20 μl intraplantar, time licking in 5 min
Method: 0.3% capsaicin in 80% saline / 10% Tween-80 / 10% ethanol or 1% AITC in saline was injected into the plantar surface of the hind paw. The injected volume for both was 20 μl. Mice were video-taped for 5 minutes. A blinded observer scored the amount of time in seconds the mouse spent licking the injected paw in a 5-minute time period.

[4] = LiCl conditioned taste aversion; assay type: in vivo, mouse; details: lithium chloride 200 mg/kg injection paired with 15 mM saccharin; WT n=7, DKO n=6
Method: Mice were single-housed and habituated for 3 days to drink from two glass bottles with stainless-steel ball-bearing spouts. Mice then received 3 days of training, where they were water-deprived for 22 hours followed by 30 mins exposure to a single water-containing bottle, then 90 mins exposure to both bottles. On the conditioning day, after 22 hours of water deprivation, mice were exposed to a single bottle containing saccharin water (15 mM) for 45 mins. Mice were then injected with lithium chloride (200 mg/kg) or PBS, and then given ordinary water for 75 mins. The animals were then water deprived for a further 22 hours. On the test day, mice were simultaneously exposed to a bottle containing water and a bottle containing saccharin for 45 mins. The volume of each solution consumed was measured by weighing the bottles before and after. To calculate the saccharin preference index of each animal, the volume of saccharin consumed was divided by the total of fluid consumed, with a value less than 0.5 indicating the development of an aversion to saccharin. […]
bioRxiv preprint doi: https://doi.org/10.1101/2023.11.15.567208; this version posted December 2, 2024. […]
Figure 2 – f igure supplement 2. Tac1::Calca DKO mice develop LiCl-induced conditioned taste aversion (A) Quantification of conditioned taste aversion (CT A) test in W T (blue ) and DKO (red) mice. […]

[5] = Inflammatory pain model, Hargreaves radiant heat; assay type: in vivo, mouse; details: PGE2 20 μl, 500 nM intraplantar
Method: The radiant heat stimulus was aimed for the centre of the plantar region of the mouse’s hind paw. The active intensity of the low stimulus was 40 intensity units, and of the high stimulus 55. The response latency was recorded for 5 trials with 10-minute breaks in between each trial.
CFA and PGE2 was purchased from Sigma. 20 μl of CFA was injected into the heel of the hind paw. PGE2 (20 μl, 500 nM) was injected into the plantar surface of the hindpaw, and behavior was assessed over the same time-frame that produces in vivo sensitization of nociceptor responses (up to 120 minutes). Inflammation-induced hypersensitivity was measured using the Hargreaves and the von Frey, as described above.

[6] = 0.6% acetic acid, 10 μl per gram, intraperitoneal; writhes in 15 min starting 5 min after injection; WT n=9, DKO n=7
Method: Mice were habituated on a plexiglass stand for 1 hour. 0.6% of acetic acid was injected intraperitoneally at a dose of 10 μl per gram weight of the animal. Mice were videotaped for 20 minutes. The number of writhes was quantified post-hoc by a blinded observer during a 15-minute interval between 5 and 20 minutes after injection.

[7] = Acetone evoked cold response; assay type: in vivo, mouse; details: acetone droplet on paw; time licking in 60 s; WT n=12, DKO n=12
Method: Mice were habituated on a plexiglass floor stand for 1 hour. Mice were videotaped as acetone was applied to the plantar region of their hind paw. Acetone was applied using a custom-made applicator, consisting of a 1ml syringe and plastic well where acetone was pushed out to generate a droplet for applying to the paw. Behavior was scored post-hoc by a blinded observer and the total amount of time spent licking the paw in a 60 second time interval was recorded. The experiment was repeated for a second trial and average scores were used.

[8] = target: T1, CGRP receptor (Calcrl and Ramp1) (Mus musculus, UniProt Q9R1W5+Q9WTJ5); test: Co-culture of DRG neurons with CGRP-sniffer cells, capsaicin-evoked CGRPα release; assay type: cell-based; details: capsaicin 10 μM, n=18 wells from 3 mice
T1 construct: expressed in transfected cells; host or cells: HEK293; Calcrl/Gα15/GCaMP6s by PiggyBac transposase (puromycin), Ramp1 by pSBbi-Neo-cmv-TETo2-RAMP1 IRES-mTagBFP2-NLS (geneticin); doxycycline-induced
T1 sequence (Q9R1W5 23-463): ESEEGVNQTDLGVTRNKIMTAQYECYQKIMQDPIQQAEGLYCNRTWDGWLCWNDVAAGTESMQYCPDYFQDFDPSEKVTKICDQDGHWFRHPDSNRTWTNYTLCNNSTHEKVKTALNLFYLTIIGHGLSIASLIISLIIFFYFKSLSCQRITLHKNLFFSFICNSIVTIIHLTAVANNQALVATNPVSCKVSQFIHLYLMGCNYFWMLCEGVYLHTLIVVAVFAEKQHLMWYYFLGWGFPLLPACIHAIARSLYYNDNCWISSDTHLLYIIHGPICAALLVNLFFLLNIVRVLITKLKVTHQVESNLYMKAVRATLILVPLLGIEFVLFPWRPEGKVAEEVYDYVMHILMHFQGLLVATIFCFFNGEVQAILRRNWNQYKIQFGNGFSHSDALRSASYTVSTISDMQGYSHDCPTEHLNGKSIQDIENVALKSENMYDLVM
T1 sequence (Q9WTJ5 27-148): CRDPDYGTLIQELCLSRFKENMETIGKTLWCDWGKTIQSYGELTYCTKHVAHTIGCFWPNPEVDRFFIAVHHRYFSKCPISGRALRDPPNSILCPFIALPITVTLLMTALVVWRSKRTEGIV

[9] = tested on: dorsal horn network activation; test: Capsaicin-evoked dorsal horn Fos staining; assay type: in vivo; details: capsaicin 0.3% into right hindpaw; WT n=5, DKO n=4; mean Fos puncta of 5 sections per mouse
[10] = target: T2, Substance P receptor (NKR1) (Mus musculus, UniProt P30548); test: Co-culture of DRG neurons with Substance P-sniffer cells, capsaicin-evoked Substance P release; assay type: cell-based; details: capsaicin 10 μM, n=12 wells from 2 mice; for Substance P-sniffer GCaMP response, WT DRG: co-culture with WT (control) DRG neurons
T2 construct: T2A self-cleaving peptide remnant (from the polycistronic P2A-TACR1-T2A cassette) (C); expressed in transfected cells; host or cells: Flp-In T-REx HEK293 (Thermo Fisher Scientific, R78007), lentiviral transduction, hygromycin selection
T2 sequence (P30548 whole entry): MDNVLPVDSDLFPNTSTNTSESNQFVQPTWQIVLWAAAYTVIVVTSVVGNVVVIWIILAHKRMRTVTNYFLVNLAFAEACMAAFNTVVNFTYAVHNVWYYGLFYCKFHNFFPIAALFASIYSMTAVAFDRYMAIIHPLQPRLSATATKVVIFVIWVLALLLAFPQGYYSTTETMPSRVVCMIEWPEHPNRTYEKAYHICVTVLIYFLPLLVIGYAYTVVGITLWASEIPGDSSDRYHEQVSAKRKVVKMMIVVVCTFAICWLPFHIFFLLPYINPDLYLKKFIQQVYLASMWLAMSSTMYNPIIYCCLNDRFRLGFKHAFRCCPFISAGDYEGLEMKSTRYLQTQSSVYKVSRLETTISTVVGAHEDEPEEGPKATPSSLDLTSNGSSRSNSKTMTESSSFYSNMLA

[11] = Chloroquine-induced itch, scratching bouts; assay type: in vivo, mouse; details: 20 μl of 25 μM chloroquine diphosphate intradermal, nape of neck; scratching bouts in 15 min; WT n=8, DKO n=11
Method: Hair from the nape of the mouse’s neck was removed 2–3 days prior to behavioral experiments using VEET hair removal cream and the area thoroughly washed and moisturizing cream applied. Mice were habituated to transparent acrylic chambers (10cm × 10cm × 13cm) 30 minutes prior to injection. Post habituation, a blinded investigator injected 20 μl of 25 μM Chloroquine diphosphate salt (Sigma-Aldrich: C6628) solution in 0.9% saline intradermally into the nape of the neck using a 31G insulin syringe. Videos were quantified by a separate blinded investigator with a scratching bout counted each time the mouse attended to the injected area with the hind paw after the paw was removed from the floor or mouth.

[12] = Oxaliplatin cold allodynia, Cold Plate; assay type: in vivo, mouse; details: one day after intraplantar oxaliplatin; Cold Plate 10 °C, 5 min; WT n=9, DKO n=6
From the text: The plate was set to the desired temperature. A camera set up with a mirror was used for better visibility of the mouse on the hot plate. A clear cylindrical tube was placed around the hot plate to ensure the mouse cannot escape. Once the hot plate reached the set temperature, the mouse was placed on the hot plate and the top of the cylinder was covered. At the cut-off time, the mouse was taken off the hot plate and placed back in the cage. The latency to lick was scored post-hoc using the recorded videos by a blinded observer.
Chemotherapy-induced neuropathy was induced in mice by intraplantar injection of oxaliplatin into the left hind paw ([Deuis et al., 2013]; [MacDonald et al., 2021]). Oxaliplatin was made up to a dose of 80 μg in 40 μl of 5% glucose solution, due to its instability in chloride-containing saline solution. The number of nocifensive behaviors in 5 mins was assessed on the Cold Plate held at 10 °C 24 hours later.

[13] = ref MacDonald et al., 2021; cited from earlier work
From the text: Lastly, we investigated how dual peptide deletion affected the development of allodynia symptoms, where innocuous stimuli are perceived as painful, in two mouse models of neuropathic pain ([Jensen and Finnerup, 2014]).

In the case of `C=CCN=C=S` [AITC, allyl isothiocyanate], the “Swelling of the hindpaw” value [1] was “provoked swelling of the hindpaw of DKO mice to a similar extent as WT mice”, the “Paw oedema (paw volume)” value [1] was “both WT and DKO mice show paw swelling” and the Plasma extravasation [2] was “both WT and DKO mice show paw swelling and plasma extravasation”. For the same molecule, the “Licking behavior, AITC” value ([3]; 1% AITC in saline, WT n=12, DKO n=12) was “evoked similar licking behavior to capsaicin that was unaffected by peptide deletion”.
For `[Cl-].[Li+]` [LiCl, lithium chloride], the “Conditioned taste aversion (saccharin preference)” value [4] was “pr onoun ced; also recorded: strong and indistinguishable conditioned taste aversion in both WT and DKO mice”.
For `CCCCC[C@H](O)/C=C/[C@H]1[C@H](O)CC(=O)[C@@H]1C/C=C\CCCC(=O)O` [PGE2, Prostaglandin E2], the “WT vs DKO difference in Hargreaves latency after PGE2, post-hoc” value ([5]; post-hoc Sidak's test, WT n=10, DKO n=10) was “only the 120 min time-point shows a significant difference (p=0.025)”, the “Heat and mechanical hypersensitivity, PGE2” value ([5]; up to 120 min, Hargreaves (n=10 each) and von Frey (n=6 each)) was “short-lasting heat and mechanical hypersensitivity to a similar extent in both WT and DKO mice” and the “Swelling of the hindpaw” value [1] was “provoked swelling of the hindpaw of DKO mice to a similar extent as WT mice”.
In the case of `CC(=O)O` [acetic acid], the Writhing behavior [6] was “comparable writhing behavior in both WT and DKO mice”.
For `CC(C)=O` [acetone], the “Cold response evoked by acetone” value [7] was “the same between groups”.
With `COc1cc(CNC(=O)CCCC/C=C/C(C)C)ccc1O` [capsaicin] the “Swelling of the hindpaw” value [1] was “provoked swelling of the hindpaw of DKO mice to a similar extent as WT mice”, the “Paw oedema (paw volume)” value [1] was “both WT and DKO mice show paw swelling; also recorded: no appreciable differences in capsaicin-induced swelling between WT and DKO mice” and the “CGRP-sniffer calcium response, WT DRG” value [8] was “strong increases in calcium”. For the same molecule, the “CGRP-sniffer calcium response, WT DRG” value ([8]; listed as Capsaicin) was “increase in CGRP-sniffer GCaMP6s fluorescence”, the “Dorsal horn Fos expression, capsaicin-evoked” value [9] was “No differences in dorsal horn Fos expression were observed” and the “Substance P-sniffer GCaMP response, DKO DRG” value ([10]; co-culture with DKO DRG neurons) was “no Substance P-sniffer cell responses”. The “Substance P-sniffer GCaMP response, WT DRG” value [10] was “robust GCaMP responses”, the “Substance P-sniffer GCaMP response, WT DRG” value ([10]; listed as Capsaicin) was “increase in Substance P-sniffer GCaMP6s fluorescence” and the Plasma extravasation [2] was “both WT and DKO mice show paw swelling and plasma extravasation; also recorded: plasma extravasation was intact in DKO mice”. For the same molecule, the “Licking behavior, capsaicin” value ([3]; 0.3% capsaicin, WT n=9, DKO n=8) was “evoked coping-like licking responses in both genotypes, however responses were variable and although decreased licking was observed in some DKO mice, differences did not reach statistical significance”.
For `CCN(CC)CCCC(C)Nc1ccnc2cc(Cl)ccc12` (centres unmarked) [chloroquine], the Scratching [11] was “DKO mice scratched robustly following intradermal chloroquine injection, a response indistinguishable from WT animals”.
For `O=C1[O][Pt]2([NH][C@@H]3CCCC[C@H]3[NH]2)[O]C1=O` [oxaliplatin], the “Cold allodynia, pain-like behaviors” value [12] is listed as “pronounced pain-like behaviors” and the “Cold allodynia (literature)” value [13] is listed as “evokes extreme cold allodynia”.
